These results are taken from BindingDB's records for patent US12419873 (Zhuhai United Laboratories Co., 2025).

The target in test [1] is Non-receptor tyrosine-protein kinase TYK2 (Homo sapiens, UniProt P29597). Description: TYK2 (h) Enzyme Reaction.
Description: (§1) Mg/ATP mixture was added to start the reaction. After incubation at room temperature for 40 minutes, 0.5% phosphoric acid was added to stop the reaction.
The target of test [2] is Tyrosine-protein kinase JAK1 (Homo sapiens, UniProt P23458). Description: JAK1 (h) Enzyme Reaction.
Description: as §1
Test [3] concerns the target Tyrosine-protein kinase JAK2 (Homo sapiens, UniProt O60674). Description: JAK2 (h) Enzyme Reaction.
Description: as §1
For test [4], the target named is T1, Tyrosine-protein kinase JAK3 (Homo sapiens, UniProt P52333).
T1 sequence (P52333 whole entry): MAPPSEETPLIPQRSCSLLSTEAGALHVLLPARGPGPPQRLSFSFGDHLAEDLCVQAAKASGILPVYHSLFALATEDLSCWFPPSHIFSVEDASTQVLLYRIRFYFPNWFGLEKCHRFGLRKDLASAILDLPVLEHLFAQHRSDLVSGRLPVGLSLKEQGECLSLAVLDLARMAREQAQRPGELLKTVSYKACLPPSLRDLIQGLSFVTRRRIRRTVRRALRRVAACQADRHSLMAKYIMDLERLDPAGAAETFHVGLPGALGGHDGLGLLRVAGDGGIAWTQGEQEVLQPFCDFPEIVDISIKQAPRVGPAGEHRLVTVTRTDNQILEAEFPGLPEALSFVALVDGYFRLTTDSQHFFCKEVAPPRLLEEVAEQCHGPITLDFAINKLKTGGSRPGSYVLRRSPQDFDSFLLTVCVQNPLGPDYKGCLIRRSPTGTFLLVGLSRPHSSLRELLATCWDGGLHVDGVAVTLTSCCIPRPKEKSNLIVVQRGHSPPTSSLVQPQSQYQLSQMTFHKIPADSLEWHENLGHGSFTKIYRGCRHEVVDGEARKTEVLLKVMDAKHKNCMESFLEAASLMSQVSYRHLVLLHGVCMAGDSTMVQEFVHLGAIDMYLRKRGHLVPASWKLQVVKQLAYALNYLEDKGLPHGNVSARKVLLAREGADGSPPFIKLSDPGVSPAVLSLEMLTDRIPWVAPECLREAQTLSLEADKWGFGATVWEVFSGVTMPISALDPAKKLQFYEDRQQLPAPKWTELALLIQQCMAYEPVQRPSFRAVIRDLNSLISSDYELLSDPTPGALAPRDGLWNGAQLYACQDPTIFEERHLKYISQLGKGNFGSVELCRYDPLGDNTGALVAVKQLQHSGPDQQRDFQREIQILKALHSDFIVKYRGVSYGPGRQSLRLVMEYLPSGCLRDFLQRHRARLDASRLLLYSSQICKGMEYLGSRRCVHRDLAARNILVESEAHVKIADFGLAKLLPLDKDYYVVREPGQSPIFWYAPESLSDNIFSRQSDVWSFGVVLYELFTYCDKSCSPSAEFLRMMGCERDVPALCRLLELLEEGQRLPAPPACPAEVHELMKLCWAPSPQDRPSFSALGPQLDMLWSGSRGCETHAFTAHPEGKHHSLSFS
Description: JAK3 (h) Enzyme Reaction.
Description: as §1

Sequence of Tyrosine-protein kinase JAK2 (O60674 whole entry): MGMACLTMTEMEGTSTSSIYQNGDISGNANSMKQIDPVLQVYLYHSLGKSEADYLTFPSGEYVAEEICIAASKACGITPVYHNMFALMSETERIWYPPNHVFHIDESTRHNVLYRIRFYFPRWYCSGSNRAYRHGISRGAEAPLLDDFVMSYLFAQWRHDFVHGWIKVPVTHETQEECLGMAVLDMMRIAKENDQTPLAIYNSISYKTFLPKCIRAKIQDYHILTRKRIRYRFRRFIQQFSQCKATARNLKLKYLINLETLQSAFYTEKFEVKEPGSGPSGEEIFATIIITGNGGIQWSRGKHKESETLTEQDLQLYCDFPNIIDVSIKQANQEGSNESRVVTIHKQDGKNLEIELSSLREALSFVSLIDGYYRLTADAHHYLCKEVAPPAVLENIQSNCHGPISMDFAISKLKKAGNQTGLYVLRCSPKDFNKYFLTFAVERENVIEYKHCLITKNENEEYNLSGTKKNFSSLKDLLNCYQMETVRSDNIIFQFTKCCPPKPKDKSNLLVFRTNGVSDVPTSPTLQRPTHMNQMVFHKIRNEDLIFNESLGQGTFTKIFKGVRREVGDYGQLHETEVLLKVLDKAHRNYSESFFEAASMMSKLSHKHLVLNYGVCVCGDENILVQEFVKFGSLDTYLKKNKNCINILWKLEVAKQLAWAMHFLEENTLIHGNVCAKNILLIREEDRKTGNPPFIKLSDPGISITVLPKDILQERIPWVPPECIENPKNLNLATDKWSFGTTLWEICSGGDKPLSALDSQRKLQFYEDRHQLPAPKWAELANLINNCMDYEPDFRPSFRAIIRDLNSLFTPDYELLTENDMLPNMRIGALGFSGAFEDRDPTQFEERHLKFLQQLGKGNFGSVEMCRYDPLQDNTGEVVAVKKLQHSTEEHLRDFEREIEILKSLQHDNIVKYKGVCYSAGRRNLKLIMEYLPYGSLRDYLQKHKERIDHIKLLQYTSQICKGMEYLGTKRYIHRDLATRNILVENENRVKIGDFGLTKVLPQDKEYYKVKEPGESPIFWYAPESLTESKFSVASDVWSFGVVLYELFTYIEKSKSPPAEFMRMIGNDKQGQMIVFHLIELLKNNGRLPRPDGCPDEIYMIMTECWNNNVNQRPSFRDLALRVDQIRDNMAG
Sequence of Non-receptor tyrosine-protein kinase TYK2 (P29597 whole entry): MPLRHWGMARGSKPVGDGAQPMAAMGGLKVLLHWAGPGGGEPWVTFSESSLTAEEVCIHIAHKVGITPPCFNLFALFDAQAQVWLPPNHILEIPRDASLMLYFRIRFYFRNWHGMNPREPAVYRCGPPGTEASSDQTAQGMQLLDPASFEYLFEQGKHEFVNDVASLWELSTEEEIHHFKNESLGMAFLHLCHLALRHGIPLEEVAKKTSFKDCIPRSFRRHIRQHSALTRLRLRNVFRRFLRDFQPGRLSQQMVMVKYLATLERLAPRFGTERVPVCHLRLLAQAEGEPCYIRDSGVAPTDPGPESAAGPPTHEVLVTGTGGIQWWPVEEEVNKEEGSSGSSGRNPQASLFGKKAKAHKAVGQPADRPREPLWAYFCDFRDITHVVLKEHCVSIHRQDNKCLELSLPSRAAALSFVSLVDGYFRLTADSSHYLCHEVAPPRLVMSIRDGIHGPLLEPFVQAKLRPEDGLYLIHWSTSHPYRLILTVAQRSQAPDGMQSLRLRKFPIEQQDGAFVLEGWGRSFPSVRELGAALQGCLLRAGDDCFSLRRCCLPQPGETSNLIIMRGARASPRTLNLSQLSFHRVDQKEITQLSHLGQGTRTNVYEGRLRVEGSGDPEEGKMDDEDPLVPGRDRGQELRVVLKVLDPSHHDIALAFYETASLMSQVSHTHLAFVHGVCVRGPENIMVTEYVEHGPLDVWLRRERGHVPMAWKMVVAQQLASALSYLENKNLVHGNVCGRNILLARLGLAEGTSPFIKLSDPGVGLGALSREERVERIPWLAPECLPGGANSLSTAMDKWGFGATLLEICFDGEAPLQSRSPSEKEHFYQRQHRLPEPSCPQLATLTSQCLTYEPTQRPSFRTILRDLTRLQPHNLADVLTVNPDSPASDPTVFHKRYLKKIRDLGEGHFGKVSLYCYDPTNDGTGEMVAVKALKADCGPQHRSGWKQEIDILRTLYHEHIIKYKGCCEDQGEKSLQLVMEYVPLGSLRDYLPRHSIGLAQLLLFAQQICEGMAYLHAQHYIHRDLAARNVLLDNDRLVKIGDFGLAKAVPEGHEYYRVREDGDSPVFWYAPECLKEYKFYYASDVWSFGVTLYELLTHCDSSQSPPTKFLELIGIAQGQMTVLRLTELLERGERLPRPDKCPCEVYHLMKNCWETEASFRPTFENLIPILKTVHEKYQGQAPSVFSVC
Sequence of Tyrosine-protein kinase JAK1 (P23458 whole entry): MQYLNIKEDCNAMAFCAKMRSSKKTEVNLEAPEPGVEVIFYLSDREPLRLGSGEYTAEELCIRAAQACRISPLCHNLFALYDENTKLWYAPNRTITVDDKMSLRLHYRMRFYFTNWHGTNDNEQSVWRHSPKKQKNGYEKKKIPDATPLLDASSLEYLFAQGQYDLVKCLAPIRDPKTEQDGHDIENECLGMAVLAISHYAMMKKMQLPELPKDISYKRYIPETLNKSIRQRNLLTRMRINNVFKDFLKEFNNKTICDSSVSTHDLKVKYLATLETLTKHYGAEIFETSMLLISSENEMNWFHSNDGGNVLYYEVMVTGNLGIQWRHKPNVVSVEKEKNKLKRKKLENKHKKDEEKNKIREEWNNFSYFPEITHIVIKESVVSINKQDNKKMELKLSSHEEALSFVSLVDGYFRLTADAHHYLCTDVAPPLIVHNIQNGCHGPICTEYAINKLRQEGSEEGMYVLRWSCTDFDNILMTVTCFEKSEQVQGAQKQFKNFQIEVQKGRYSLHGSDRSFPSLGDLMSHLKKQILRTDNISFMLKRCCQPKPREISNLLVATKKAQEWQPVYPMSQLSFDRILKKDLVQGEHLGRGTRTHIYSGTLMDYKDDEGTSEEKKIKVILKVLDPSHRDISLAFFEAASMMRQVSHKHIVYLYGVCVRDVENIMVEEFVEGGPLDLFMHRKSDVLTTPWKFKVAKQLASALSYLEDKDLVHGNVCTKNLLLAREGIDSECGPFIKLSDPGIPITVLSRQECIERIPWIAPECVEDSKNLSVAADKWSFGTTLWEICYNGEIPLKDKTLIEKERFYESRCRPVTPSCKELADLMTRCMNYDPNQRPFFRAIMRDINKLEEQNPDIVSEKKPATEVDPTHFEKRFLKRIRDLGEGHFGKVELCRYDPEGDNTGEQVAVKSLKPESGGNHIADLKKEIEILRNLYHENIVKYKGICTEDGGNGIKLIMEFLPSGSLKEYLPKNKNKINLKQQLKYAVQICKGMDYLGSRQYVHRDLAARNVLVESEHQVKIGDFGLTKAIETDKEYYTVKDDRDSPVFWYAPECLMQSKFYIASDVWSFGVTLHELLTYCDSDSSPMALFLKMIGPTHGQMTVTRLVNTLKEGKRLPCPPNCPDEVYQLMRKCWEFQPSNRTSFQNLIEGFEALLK

In general, IC50 refers to the midpoint of a concentration-inhibition curve. A low value points to higher potency. `N#CCC(=O)N1CC2(CCC(c3cccc4nc(NC(=O)[C@@H]5CC5(F)F)nn34)CC2)C1` [US12419873, Compound 9-5]: the IC50 in test [1] is 175 nM; in test [2] it was 224 nM; in test [3], 624 nM; in test [4] it was above 10000 nM.
